Assay results reported in patent publication US10669272B2, “Substituted naphthyridinone compounds useful as T cell activators” (BRISTOL-MYERS SQUIBB COMPANY, priority 2018, dated 2020).
Like-named read-outs stand apart in the source and are kept apart here.

Key:
human DGKζ = biological target: T1, human DGKζ (Homo sapiens, UniProt Q13574); assay: DGKζ LIPGLO assay (extruded liposome substrate), in vitro DGK inhibition; assay type: biochemical; conditions: liposome (LIPGLO) assay; read-out: DGKz LIPGLO IC50
T1 construct: TVMV protease cleavage site (C); Hexa-His (C); made in house; host or cells: Sf9 insect cells (baculovirus, Bac-to-Bac)
T1 sequence (Q13574 with tags, fused parts or gaps isoform Q13574-4): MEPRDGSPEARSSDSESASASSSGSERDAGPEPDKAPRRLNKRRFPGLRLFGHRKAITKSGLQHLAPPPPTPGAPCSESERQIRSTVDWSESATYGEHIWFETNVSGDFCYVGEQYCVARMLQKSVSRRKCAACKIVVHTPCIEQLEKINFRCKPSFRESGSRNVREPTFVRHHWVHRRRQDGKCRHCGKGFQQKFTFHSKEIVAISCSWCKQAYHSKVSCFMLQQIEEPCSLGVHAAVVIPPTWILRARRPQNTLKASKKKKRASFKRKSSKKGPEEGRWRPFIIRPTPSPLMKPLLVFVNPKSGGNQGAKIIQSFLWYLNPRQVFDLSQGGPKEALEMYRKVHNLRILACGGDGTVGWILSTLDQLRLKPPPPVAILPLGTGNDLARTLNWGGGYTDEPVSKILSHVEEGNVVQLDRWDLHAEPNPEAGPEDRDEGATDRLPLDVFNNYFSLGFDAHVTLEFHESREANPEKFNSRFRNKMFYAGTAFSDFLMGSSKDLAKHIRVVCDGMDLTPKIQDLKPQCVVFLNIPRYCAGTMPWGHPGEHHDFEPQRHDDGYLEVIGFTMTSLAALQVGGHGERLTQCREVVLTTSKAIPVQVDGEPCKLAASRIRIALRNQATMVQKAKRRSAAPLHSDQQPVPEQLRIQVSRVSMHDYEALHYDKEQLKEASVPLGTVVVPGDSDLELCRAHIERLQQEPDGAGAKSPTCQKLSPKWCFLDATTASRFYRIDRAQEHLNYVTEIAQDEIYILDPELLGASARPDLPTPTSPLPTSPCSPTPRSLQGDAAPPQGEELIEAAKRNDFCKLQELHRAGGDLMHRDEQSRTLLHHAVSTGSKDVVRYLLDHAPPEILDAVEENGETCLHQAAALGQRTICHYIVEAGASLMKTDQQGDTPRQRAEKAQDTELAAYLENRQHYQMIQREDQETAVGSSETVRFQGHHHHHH

Human venous whole blood = assay: Human whole blood IFN-γ assay; assay type: cell-based; conditions: human whole blood, normalized to 3 μM reference compound with anti-CD3 plus anti-CD28 as 100% activation, read-out: INFg Whole Blood Normalized Agonist EC50;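 also: blood from healthy donors exposed to compound for 1 h before stimulation with anti-CD3 and anti-CD28 at 1 µg/mL each, IFN-γ quantified in supernatant by AlphaLISA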
human DGKα = biological target: T2, human DGKα (Homo sapiens, UniProt P23743); assay: DGKα LIPGLO assay (extruded liposome substrate), in vitro DGK inhibition; assay type: biochemical; conditions: liposome (LIPGLO) assay; read-out: DGKa LIPGLO IC50
T2 construct: TVMV protease cleavage site (C); Hexa-His (C); made in house; host or cells: Sf9 insect cells (baculovirus, Bac-to-Bac)
T2 sequence (P23743 with tags, fused parts or gaps): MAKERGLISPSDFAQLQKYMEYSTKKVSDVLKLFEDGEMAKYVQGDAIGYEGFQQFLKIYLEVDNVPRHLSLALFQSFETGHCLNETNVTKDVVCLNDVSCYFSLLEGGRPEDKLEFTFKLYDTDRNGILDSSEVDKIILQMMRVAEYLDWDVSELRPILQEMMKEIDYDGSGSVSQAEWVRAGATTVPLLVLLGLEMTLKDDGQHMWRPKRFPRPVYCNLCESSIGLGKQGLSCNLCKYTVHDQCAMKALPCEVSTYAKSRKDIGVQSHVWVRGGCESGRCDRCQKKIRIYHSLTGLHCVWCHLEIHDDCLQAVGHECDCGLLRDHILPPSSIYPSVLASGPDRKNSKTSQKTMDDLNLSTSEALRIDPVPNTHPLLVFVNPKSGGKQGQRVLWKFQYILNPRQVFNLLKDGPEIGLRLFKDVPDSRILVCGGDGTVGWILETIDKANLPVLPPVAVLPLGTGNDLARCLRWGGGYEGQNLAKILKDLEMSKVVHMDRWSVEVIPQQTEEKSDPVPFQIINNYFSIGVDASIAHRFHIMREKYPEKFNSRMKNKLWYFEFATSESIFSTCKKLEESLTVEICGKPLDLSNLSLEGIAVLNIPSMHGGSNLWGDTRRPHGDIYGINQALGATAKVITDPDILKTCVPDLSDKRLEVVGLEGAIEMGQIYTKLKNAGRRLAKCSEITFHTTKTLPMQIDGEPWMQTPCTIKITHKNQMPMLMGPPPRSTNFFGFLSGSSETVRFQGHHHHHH

Row | IC50 (human DGKζ) [µM] | IC50 (human DGKα) [µM] | SMILES | EC50 (Human venous whole blood) [µM] | EC50 (Human venous whole blood; Homo sapiens, 24 h) [µM]
1 | 4.1 | 1.2 | C[C@@H]1CN(c2c(F)c(=O)n(C)c3ccc(C#N)nc23)[C@@H](C)CN1C(c1ccc(Cl)cc1)c1ccc(OC(F)(F)F)cc1 (stereo partly drawn) [Example 324, 8-((2S,5R)-4-((4-chlorophenyl)(4-(trifluoromethoxy)phenyl)methyl)-2,5-dimethylpiperazin-1-yl)-7-fluoro-5-methyl-6-oxo-5,6-dihydro-1,5-naphthyridine-2-carbonitrile] | 4.7 | 
2 | 2.3 | 0.68 | C[C@@H]1CN(c2c(F)c(=O)n(C)c3ccc(C#N)nc23)[C@@H](C)CN1C(c1ccc(F)cc1)c1ccc(C(F)(F)F)cc1 (stereo partly drawn) [Example 325, 7-fluoro-8-((2S,5R)-4-((4-fluorophenyl)(4-(trifluoromethyl)phenyl)methyl)-2,5-dimethylpiperazin-1-yl)-5-methyl-6-oxo-5,6-dihydro-1,5-naphthyridine-2-carbonitrile] | 3.2 | 
3 | 1 | 3.1 | Cc1ccc(C(c2ccc(F)cc2)N2C[C@H](C)N(c3c(F)c(=O)n(C)c4ccc(C#N)nc34)C[C@H]2C)cc1 (stereo partly drawn) [Example 332, 7-fluoro-8-((2S,5R)-4-((4-fluorophenyl)(p-tolyl)methyl)-2,5-dimethylpiperazin-1-yl)-5-methyl-6-oxo-5,6-dihydro-1,5-naphthyridine-2-carbonitrile] |  | 1.9
4 | 1.1 | 0.83 | C[C@@H]1CN(c2c(F)c(=O)n(C)c3ccc(C#N)nc23)[C@@H](C)CN1C(c1ccc(F)cc1)c1ccccc1F (stereo partly drawn) [Example 333, 7-fluoro-8-((2S,5R)-4-((2-fluorophenyl)(4-fluorophenyl)methyl)-2,5-dimethylpiperazin-1-yl)-5-methyl-6-oxo-5,6-dihydro-1,5-naphthyridine-2-carbonitrile] |  | 1.2
5 | 0.56 | 0.5 | C[C@@H]1CN(c2c(F)c(=O)n(C)c3ccc(C#N)nc23)[C@@H](C)CN1C(c1ccc(F)cc1)c1ccccc1F (stereo partly drawn) [Example 334, 7-fluoro-8-((2S,5R)-4-((2-fluorophenyl)(4-fluorophenyl)methyl)-2,5-dimethylpiperazin-1-yl)-5-methyl-6-oxo-5,6-dihydro-1,5-naphthyridine-2-carbonitrile] | 1.9 | 
6 | 2.5 | 1.2 | Cc1ccc(C(c2ccc(F)cc2)N2C[C@H](C)N(c3c(F)c(=O)n(C)c4ccc(C#N)nc34)C[C@H]2C)cc1 (stereo partly drawn) [Example 335, 7-fluoro-8-((2S,5R)-4-((4-fluorophenyl)(p-tolyl)methyl)-2,5-dimethylpiperazin-1-yl)-5-methyl-6-oxo-5,6-dihydro-1,5-naphthyridine-2-carbonitrile] | 1.2 | 
7 | 1.7 | 0.52 | COc1cc(OC(F)(F)F)ccc1CN1C[C@H](C)N(c2cc(=O)n(C)c3ccc(C#N)nc23)C[C@H]1C [Example 352, 8-((2S,5R)-4-(2-methoxy-4-(trifluoromethoxy)benzyl)-2,5-dimethylpiperazin-1-yl)-5-methyl-6-oxo-5,6-dihydro-1,5-naphthyridine-2-carbonitrile] |  | 0.79
8 | 1.4 | 1.1 | Cc1ccc(C(c2cccc(Cl)c2)N2C[C@H](C)N(c3cc(=O)n(C)c4ccc(C#N)nc34)C[C@H]2C)nc1 (stereo partly drawn) [Example 398, 8-((2S,5R)-4-((3-chlorophenyl)(5-methylpyridin-2-yl)methyl)-2,5-dimethylpiperazin-1-yl)-5-methyl-6-oxo-5,6-dihydro-1,5-naphthyridine-2-carbonitrile] |  | 0.41
9 | 0.69 | 2.3 | Cc1ccc(C(c2ccc(C)c(Cl)c2)N2C[C@H](C)N(c3cc(=O)n(C)c4ccc(C#N)nc34)C[C@H]2C)nc1 (stereo partly drawn) [Example 399, 8-((2S,5R)-4-((3-chloro-4-methylphenyl)(5-methylpyridin-2-yl)methyl)-2,5-dimethylpiperazin-1-yl)-5-methyl-6-oxo-5,6-dihydro-1,5-naphthyridine-2-carbonitrile] | 0.57 | 
10 | 1 | 0.029 | C[C@@H]1CN(c2cc(=O)n(C)c3ccc(C#N)nc23)[C@@H](C)CN1C(c1ccc(F)cn1)c1ccc(F)cn1 [Example 407, 8-((2S,5R)-4-(bis(5-fluoropyridin-2-yl)methyl)-2,5-dimethylpiperazin-1-yl)-5-methyl-6-oxo-5,6-dihydro-1,5-naphthyridine-2-carbonitrile] |  | 20
11 | 11 | 20 | Cc1ccc(C(c2cccc(F)c2)N2C[C@H](C)N(c3cc(=O)n(C)c4ccc(C#N)nc34)C[C@H]2C)cn1 (stereo partly drawn) [Example 417, 8-((2S,5R)-4-((3-fluorophenyl)(6-methylpyridin-3-yl)methyl)-2,5-dimethylpiperazin-1-yl)-5-methyl-6-oxo-5,6-dihydro-1,5-naphthyridine-2-carbonitrile] | 7.7 | 
12 | 0.34 | 0.95 | CC[C@@H]1CN(c2cc(=O)n(C)c3ccc(C#N)nc23)[C@@H](C)CN1C(c1ccc(F)cc1)c1ccnc(C)n1 (stereo partly drawn) [Example 419, 8-((2S,5R)-5-ethyl-4-((4-fluorophenyl)(2-methylpyrimidin-4-yl)methyl)-2-methylpiperazin-1-yl)-5-methyl-6-oxo-5,6-dihydro-1,5-naphthyridine-2-carbonitrile] | 0.96 | 
13 | 1.1 | 7.3 | CC(c1ccc(C(F)(F)F)cc1F)N1C[C@H](C)N(c2cc(=O)n(C)c3ccc(C#N)nc23)C[C@H]1C (stereo partly drawn) [Example 431, 8-((2S,5R)-4-(1-(2-fluoro-4-(trifluoromethyl)phenyl)ethyl)-2,5-dimethylpiperazin-1-yl)-5-methyl-6-oxo-5,6-dihydro-1,5-naphthyridine-2-carbonitrile] |  | 1.6
14 | 0.67 | 0.4 | CC(c1ccc(OC(F)(F)F)cc1F)N1C[C@H](C)N(c2cc(=O)n(C)c3ccc(C#N)nc23)C[C@H]1C (stereo partly drawn) [Example 437, 8-((2S,5R)-4-(1-(2-fluoro-4-(trifluoromethoxy)phenyl)ethyl)-2,5-dimethylpiperazin-1-yl)-5-methyl-6-oxo-5,6-dihydro-1,5-naphthyridine-2-carbonitrile] |  | 0.54
15 | 0.81 | 0.32 | CCC(c1ccc(OC(F)(F)F)cc1F)N1C[C@H](C)N(c2cc(=O)n(C)c3ccc(C#N)nc23)C[C@H]1C (stereo partly drawn) [Example 438, 8-((2S,5R)-4-(1-(2-fluoro-4-(trifluoromethoxy)phenyl)propyl)-2,5-dimethylpiperazin-1-yl)-5-methyl-6-oxo-5,6-dihydro-1,5-naphthyridine-2-carbonitrile] |  | 0.74
16 | 2.1 | 1.7 | C[C@@H]1CN(c2cc(=O)n(C)c3ccc(C#N)nc23)[C@@H](C)CN1C(c1ccc(Cl)cc1)c1cc(F)ccn1 (stereo partly drawn) [Example 446, 8-((2S,5R)-4-((4-chlorophenyl)(4-fluoropyridin-2-yl)methyl)-2,5-dimethylpiperazin-1-yl)-5-methyl-6-oxo-5,6-dihydro-1,5-naphthyridine-2-carbonitrile] |  | 1.1
17 | 1 | 0.31 | Cc1ccc(C(c2ccc(C#N)cc2)N2C[C@H](C)N(c3cc(=O)n(C)c4ccc(C#N)nc34)C[C@H]2C)nc1 (stereo partly drawn) [Example 453, 8-((2S,5R)-4-((4-cyanophenyl)(5-methylpyridin-2-yl)methyl)-2,5-dimethylpiperazin-1-yl)-5-methyl-6-oxo-5,6-dihydro-1,5-naphthyridine-2-carbonitrile] | 2.8 | 
18 | 2.9 | 1.3 | C[C@@H]1CN(c2cc(=O)n(C)c3ccc(C#N)nc23)[C@@H](C)CN1C(c1ccc(F)cc1)c1cc(F)ccn1 (stereo partly drawn) [Example 472, 8-((2S,5R)-4-((4-fluorophenyl)(4-fluoropyridin-2-yl)methyl)-2,5-dimethylpiperazin-1-yl)-5-methyl-6-oxo-5,6-dihydro-1,5-naphthyridine-2-carbonitrile] |  | 1.3
19 | 2 | 16 | C[C@@H]1CN(c2cc(=O)n(C)c3ccc(C#N)nc23)[C@@H](C)CN1Cc1cccc2c1cnn2C [Example 475, 8-((2S,5R)-2,5-dimethyl-4-((1-methyl-1H-indazol-4-yl)methyl)piperazin-1-yl)-5-methyl-6-oxo-5,6-dihydro-1,5-naphthyridine-2-carbonitrile] |  | 20
20 | 18 | 2.8 | C[C@@H]1CN(c2cc(=O)n(C)c3ccc(C#N)nc23)[C@@H](C)CN1Cc1ccc(C2(C#N)CC2)cc1 [Example 567] |  | 20
21 | 6.7 | 1.3 | C[C@@H]1CN(c2cc(=O)n(C)c3ccc(C#N)nc23)[C@@H](C)CN1Cc1ccc(OC(F)(F)F)cc1C#N [Example 581] |  | 2.7
22 | 7.9 | 5.9 | C[C@@H]1CN(c2cc(=O)n(C)c3ccc(C#N)nc23)[C@@H](C)CN1Cc1ccc(OC(F)(F)F)c(C#N)c1 [Example 584] |  | 3.4
23 | 1.5 | 9.3 | C[C@@H]1CN(c2cc(=O)n(C)c3ccc(C#N)nc23)[C@@H](C)CN1Cc1ccc(F)c(OC(F)(F)F)c1 [Example 585] |  | 2.1
24 | 5.6 | 7.3 | C[C@@H]1CN(c2cc(=O)n(C)c3ccc(C#N)nc23)[C@@H](C)CN1Cc1cccc(OC(F)(F)F)c1 [Example 586] |  | 2.3
25 | 6.6 | 4.6 | C[C@@H]1CN(c2cc(=O)n(C)c3ccc(C#N)nc23)[C@@H](C)CN1Cc1ccc(C(C)(C)C)cc1 [Example 587] |  | 2.3
26 | 5.1 | 0.33 | C[C@@H]1CN(c2cc(=O)n(C)c3ccc(C#N)nc23)[C@@H](C)CN1Cc1ccc(OC(F)F)cc1F [Example 590] |  | 1.9
